Experimental findings from patent US20060063143A1, “Immortalized hypothalamic neuronal cell lines” (priority 2002, published 2006) are described below.

What all share (type): cell-based, mouse
In assay [1] the test system is NPY-17 (N-38) cells. As to the kind of experiment: Calcium imaging (Fura2): intracellular calcium response to depolarization by KCl. The conditions noted are these: KCl 60 mM, NPY-17 cells. The procedure: FIG. 15 illustrates the neurosecretory response of NPY-17 (N 38) cells. The effect of the addition of KCl (60 mM) on intracellular calcium levels ([Ca2+]i) for the cells pictured is shown. Images of cells shown in the two panels on the right were obtained as per Example 5. Shown is a representative experiment from 6 experiments, n=116 cells in total (FIG. 15, left panel);
Since many of the peptides and enzyme present in the individual cell lines are secretory products, one representative cell line, N-38 (Also known as NPY-17), was studied for its response to depolarization by addition of 60 mM KCl. […] NPY-17 neurons were plated in 60 mm plates. Fura-2/AM loaded GT1-7 neurons were continuously monitored by 340/380 ratiometric digital imaging pre (top right panel) and post (lower right panel) stimulation. […]
Ca2+ imaging experiments were performed with Fura2 (Molecular Probes) using an Olympus IX70 inverted epifluorescence microscope, an Ultrapix camera with an EEV CCD37-10-1-019 chip, a monochromator, and a PC computer with Merlin imaging software (Life Science Resources) using standard Fura2 optics and imaging techniques. […] Intracellular free Ca2+ ([Ca2+]i) concentrations calculated using the Grynkiewicz equation, [Ca2+]i=Kd×□×(R−Rmin)/(Rmax−R) (52).
On the technique in general: Calcium flux is commonly read through the fluorescence of an indicator in the cells.

Assay [2] concerns N38 hypothalmic cells. The experiment in a line: Microarray (Affymetrix oligonucleotide arrays) of TCAP-1 treated cells, genes regulated at 16 hours. The procedure:
RNAs isolated from treated and untreated cells were analyzed on oligonucleotide arrays representing 12,884 mouse genes (Affymetrix, http://www.affymetrix.com). Standard filtering (p<0.005) and hierarchical clustering algorithm (average linage method: GeneSpring software—Silicon Genetics) identified significant changes in the expression of 4, 841/12,885 genes with 166 genes showing 1.5 fold down-regulation and 35 genes up-regulation in the TCAP-1-treated cells compared to the untreated cells. […] A G-protein coupled receptor-related signal transduction pathway is indicated by the regulation of genes, CREM, AKAP8, AKAP95 and PDE6A. […] The upregulation in inducible nitric oxide (INOS), a intracellular voltage-gated chloride channel (CLCN3) and the serotonin transporter (SLC6A4) may reflect the down stream actions of cAMP-mediated signal cascade and indicates the potential for TCAP to be involved in neuronal signaling systems. A role in interneuron communication by TCAP is also indicated by the modulation of genes associated with the regulation of vesicle trafficking. Thus, the TCAP responsive cell lines can be used to screen for modulators of neuronal function that affect growth, differentiation and communication.
The change in expression levels is indicated relative to the untreated control cell for the same time period of 16 hours. Values>1.5 fold or <0.70 fold were considered significant.

The test system of assay [3] is NPY-17 cells. As to the kind of experiment: Leptin responsiveness: proteomic (mass spectrometry) analysis of nuclear extracts. The conditions noted are these: 10^-7 M leptin, 20 hours, NPY-17 nuclear extracts, preliminary, +/- protein status. The procedure:
The NPY-17 cells also express leptin receptors and have been studied for leptin responsiveness using both gene array analysis and proteomic analysis. NPY-17 cells were treated with 10^-7 M leptin (recombinant mouse, Bachem Scientific) for 20 hours. Cells were washed with PBS and harvested through centrifugation. Nuclear extracts were prepared and exposed to mass spectrometry analysis. […] The analysis is not considered quantitative, but initially represents a +/− protein status (i.e. the protein is either present or absent in the control or leptin-treated sample).

The mark [4] stands for this setting: 1 nM TCAP-1, N38 cells, 16 hours post-treatment.
The mark [5] stands for this setting: 1 nM TCAP-1, N38 cells, treated vs untreated.

`[Cl-].[K+]` [KCl]: the calcium mobilization result in assay [1] is “significant increase”. In assay [1] (representative graph), the “[Ca2+]i peak value” is listed as roughly 450 nM.
Consider “TCAP-1: teneurin C-terminal-associated peptide 1, SEQ ID NO 5 plus amidation signal GRR at C-terminus (QQLLGTGRVQGYDGYFVLSVEQYLELSDSANNIHFMRQSEI; C-terminal GRR amidation signal; Mouse TCAP1)”, for which the “Fold change PTK7 (Receptor protein tyrosine kinase)” value in assay [2] (1 nM TCAP-1, 16 hours, relative to untreated control, cluster Growth/Differentiation, probe 92325) came to 1.53 fold. Moreover, the “Fold change GDAP10 (Ganglioside induced diff. protein 10)” value in assay [2] (1 nM TCAP-1, 16 hours, relative to untreated control, cluster Growth/Differentiation, probe 94192) was determined as 1.62 fold. Moreover, the “Fold change MMP10 (Matrix metalloproteinase 10)” value in assay [2] (1 nM TCAP-1, 16 hours, relative to untreated control, cluster Growth/Differentiation, probe 94724) is reported as 0.59 fold. In assay [2] (1 nM TCAP-1, 16 hours, relative to untreated control, cluster Growth/Differentiation, probe 97353), the “Fold change DLP1/2 (DAB2 interacting protein)” value was 0.68 fold. The “Fold change P204 (Interferon activatable protein)” value in assay [2] (1 nM TCAP-1, 16 hours, relative to untreated control, cluster Growth/Differentiation, probe 98466) stood at 1.85 fold. Besides, the “Fold change GAS5 (Growth arrest specific transcript)” value in assay [2] (1 nM TCAP-1, 16 hours, relative to untreated control, cluster Growth/Differentiation, probe 98530) is given as 0.46 fold. Further, in assay [2] (1 nM TCAP-1, 16 hours, relative to untreated control, cluster Growth/Differentiation, probe 99924), the “Fold change INI1B (Integrase interacting protein 1B)” value came to 0.48 fold. In assay [2] (1 nM TCAP-1, 16 hours, relative to untreated control, cluster Growth/Differentiation, probe 100484), the “Fold change MMP1 (Matrix metalloproteinase 1)” value was 0.55 fold. In addition, the “Fold change MOP3 (Circadian rhythm regulator)” value in assay [2] (1 nM TCAP-1, 16 hours, relative to untreated control, cluster Growth/Differentiation, probe 102382) was found to be 1.57 fold. For the same molecule, the “Fold change CRD-BP (CRD-binding protein)” value in assay [2] (1 nM TCAP-1, 16 hours, relative to untreated control, cluster Growth/Differentiation, probe 102627) amounted to 0.59 fold. Besides, the “Fold change CD95 (Fas antigen)” value in assay [2] (1 nM TCAP-1, 16 hours, relative to untreated control, cluster Growth/Differentiation, probe 102921) stood at 0.61 fold. Moreover, in assay [2] (1 nM TCAP-1, 16 hours, relative to untreated control, cluster Growth/Differentiation, probe 103202), the “Fold change GBP3 (Guanylate binding protein)” value is listed as 0.63 fold. The “Fold change CAI1 (Casein kinase II)” value in assay [2] (1 nM TCAP-1, 16 hours, relative to untreated control, cluster Growth/Differentiation, probe 103441) is 0.61 fold. Moreover, the “Fold change SSG1 (Steroid sensitive gene 1)” value in assay [2] (1 nM TCAP-1, 16 hours, relative to untreated control, cluster Growth/Differentiation, probe 160298) is 0.62 fold. The “Fold change SDPR (Serum deprivation response protein)” value in assay [2] (1 nM TCAP-1, 16 hours, relative to untreated control, cluster Growth/Differentiation, probe 160373) is reported as 0.57 fold. Also, the “Fold change ST7 (Suppressor of tumourigenicity)” value in assay [2] (1 nM TCAP-1, 16 hours, relative to untreated control, cluster Growth/Differentiation, probe 160591) came to 1.97 fold. Also, the “Fold change PPAN (Peter Pan homologue)” value in assay [2] (1 nM TCAP-1, 16 hours, relative to untreated control, cluster Growth/Differentiation, probe 160802) stood at 0.62 fold. Further, the “Fold change P202 (202 interferon activatable protein)” value in assay [2] (1 nM TCAP-1, 16 hours, relative to untreated control, cluster Growth/Differentiation, probe 161173) was 0.61 fold. In addition, the “Fold change MKI67 (Cell cycle protein regulator)” value in assay [2] (1 nM TCAP-1, 16 hours, relative to untreated control, cluster Growth/Differentiation, probe 161931) is recorded as 1.70 fold. Also, the “Fold change CLM2-B (Cytohesin-2)” value in assay [2] (1 nM TCAP-1, 16 hours, relative to untreated control, cluster Processing, probe 93492) amounted to 0.63 fold. The “Fold change ARF1 (ADP ribosylation factor 1)” value in assay [2] (1 nM TCAP-1, 16 hours, relative to untreated control, cluster Processing, probe 95156) worked out at 0.63 fold. In assay [2] (1 nM TCAP-1, 16 hours, relative to untreated control, cluster Processing, probe 99675), the “Fold change YIPID (Rab-mediated membrane transport)” value was 1.88 fold. Further, in assay [2] (1 nM TCAP-1, 16 hours, relative to untreated control, cluster Processing, probe 100074), the “Fold change GP25L2 (gp25L brings cargo forward from ER)” value is reported as 1.53 fold. Also, in assay [2] (1 nM TCAP-1, 16 hours, relative to untreated control, cluster Processing, probe 104561), the “Fold change AP4S1 (Adaptor related protein complex)” value came to 1.52 fold. For the same molecule, in assay [2] (1 nM TCAP-1, 16 hours, relative to untreated control, cluster Processing, probe 160149), the “Fold change RAB10 (Ras oncogene homologue)” value turned out to be 1.62 fold. Besides, the “Fold change CAMIII (Calmodulin III)” value in assay [2] (1 nM TCAP-1, 16 hours, relative to untreated control, cluster Signalling/Communication, probe 92631) turned out to be 0.53 fold. For the same molecule, the “Fold change FNBX (Ferredoxin-NADP reductase)” value in assay [2] (1 nM TCAP-1, 16 hours, relative to untreated control, cluster Signalling/Communication, probe 92754) was found to be 1.61 fold. Also, the “Fold change ALK3 (Bone morphogenic protein receptor)” value in assay [2] (1 nM TCAP-1, 16 hours, relative to untreated control, cluster Signalling/Communication, probe 92767) is reported as 0.60 fold. The “Fold change BMP4 (Bone morphogenic protein-4)” value in assay [2] (1 nM TCAP-1, 16 hours, relative to untreated control, cluster Signalling/Communication, probe 93456) stood at 0.52 fold. Also, the “Fold change IL1R (Interleukin 1 receptor)” value in assay [2] (1 nM TCAP-1, 16 hours, relative to untreated control, cluster Signalling/Communication, probe 93914) turned out to be 0.60 fold. Besides, in assay [2] (1 nM TCAP-1, 16 hours, relative to untreated control, cluster Signalling/Communication, probe 94465), the “Fold change CLCN3 (Chloride channel protein 3)” value stood at 1.66 fold. For the same molecule, in assay [2] (1 nM TCAP-1, 16 hours, relative to untreated control, cluster Signalling/Communication, probe 95001), the “Fold change AKAP95 (A kinase anchor protein 95)” value stood at 0.60 fold. For the same molecule, the “Fold change GR (Glucocorticoid receptor)” value in assay [2] (1 nM TCAP-1, 16 hours, relative to untreated control, cluster Signalling/Communication, probe 98818) is on record as 0.66 fold. In assay [2] (1 nM TCAP-1, 16 hours, relative to untreated control, cluster Signalling/Communication, probe 100533), the “Fold change CREMβ1 (cAMP-responsive element modulator)” value was found to be 1.61 fold. For the same molecule, in assay [2] (1 nM TCAP-1, 16 hours, relative to untreated control, cluster Signalling/Communication, probe 100696), the “Fold change PDE6A (cGMP Phosphodiesterase α)” value was determined as 1.68 fold. Moreover, in assay [2] (1 nM TCAP-1, 16 hours, relative to untreated control, cluster Signalling/Communication, probe 101834), the “Fold change ERK1 (Mitogen activated protein kinase)” value amounted to 0.64 fold. Moreover, the “Fold change BARK1 (β adrenorgic receptor kinase 1)” value in assay [2] (1 nM TCAP-1, 16 hours, relative to untreated control, cluster Signalling/Communication, probe 104270) came to 0.61 fold. For the same molecule, the “Fold change INOS (Inducible nitric oxide synthetase)” value in assay [2] (1 nM TCAP-1, 16 hours, relative to untreated control, cluster Signalling/Communication, probe 104420) came out at 1.50 fold. For the same molecule, in assay [2] (1 nM TCAP-1, 16 hours, relative to untreated control, cluster Signalling/Communication, probe 160976), the “Fold change PCDHγ (protocadherin γ)” value was 0.42 fold. Besides, the “Fold change TTF-1IP (TTF-1 interacting peptide)” value in assay [2] (1 nM TCAP-1, 16 hours, relative to untreated control, cluster Signalling/Communication, probe 161019) was 0.50 fold. In addition, in assay [2] (1 nM TCAP-1, 16 hours, relative to untreated control, cluster Signalling/Communication, probe 161088), the “Fold change AKAP8 (A kinase anchor protein 8)” value stood at 1.58 fold. Further, the “Fold change SLC6A4 (Serotonin transporter)” value in assay [2] (1 nM TCAP-1, 16 hours, relative to untreated control, cluster Signalling/Communication, probe 161695) was 1.53 fold. Further, in assay [2] (setting [4]), the AKAP8 gene expression result was “upregulation”, the AKAP95 gene expression result is recorded as “Downregulation”, the CD95 gene expression entry is reported as “significant decrease” and the EFK1 gene expression entry is “down regulated”. For the same molecule, in assay [2] (setting [4]), the GAS5 gene expression entry is “significant decrease”, the GDAP10 gene expression result was “upregulated”, the MK167 gene expression result was “upregulated” and the MOP3 gene expression entry is “upregulated”. Also, in assay [2] (setting [4]), the RGL gene expression entry is “down regulated”, the SDPR gene expression result is “significant decrease”, the “inducible nitric oxide (INOS) gene expression” value is reported as “upregulation” and the “intracellular voltage-gated chloride channel (CLCN3) gene expression” value is recorded as “upregulation”. The “serotonin transporter (SLC6A4) gene expression” value in assay [2] (setting [4]) is reported as “upregulation”. Moreover, in assay [2] (setting [5]), the “genes showing 1.5 fold down-regulation” value is given as 166 and the genes showing up-regulation is 35.

B1: leptin: leptin (recombinant mouse, Bachem Scientific) (protein, UniProt P41160 22-167, looked up)
Leptin: VPIQKVQDDTKTLIKTIVTRINDISHTQSVSAKQRVTGLDFIPGLHPILSLSKMDQTLAVYQQVLTSLPSQNVLQIANDLENLRDLLHLLAFSKSCSLPQTSGLQKPESLDGVLEASLYSTEVVALSRLQGSLQDILQQLDVSPEC
B1: in assay [3], the “proteins altered by leptin treatment” value was “approximately 250”.
